Experimental data as given in patent publication US20200017496A1 (priority 2017, published 2020).
Where two headings read alike, the source gives them in different places.

Experiments:
Test in all cases: MIC of compounds alone and combined with antibacterials, broth microdilution (CLSI)
Assay type in all cases: cell-based
[1] = tested on: Escherichia coli (ECO) isolates; details: Escherichia coli
Method: (§1) Method 2: MIC of Compounds Alone and Combined with Antibacterials Against Bacterial Isolates.
(§2) Compounds of the present invention were assessed against genotyped bacterial strains (Table 3, 4) alone or in combination with an antibacterial (Table 2). […] Log phase bacterial suspensions were adjusted to a final density of 5·10^5 CFU/mL in cation-adjusted Mueller-Hinton broth (ca-MHB; Becton-Dickinson and Company) and added to each well (98 μL). Microplates were incubated for 16-20 h at 35° C. in ambient air. The MIC of the compounds was defined as the lowest concentration of said compounds that prevented bacterial growth as read by visual inspection. The MIC of ATB at each compound concentration was defined as the lowest concentration of ATB that prevented bacterial growth as read by visual inspection.

[2] = tested on: Providencia rettgeri (PRE) isolates
Method: as §1, §2

[3] = tested on: Providencia stuartii (PST) isolates; details: for MIC: Providencia stuartii, read-out: MIC
Method: as §1, §2

[4] = tested on: Salmonella typhimurium (STY) isolates; details: for MIC ATB in combination: STY S3371; for MIC: Salmonella enterica, TYPHIMURIUM, strain STY S3371 (OXA-1)
Method: as §1, §2

C=CC1=C(C(=O)O)N2C(=O)[C@@H](NC(=O)/C(=N\OCC(=O)O)c3csc(N)n3)[C@H]2SC1 [FIX, Cefixime]
MIC ([1]; strain ECO 260096 (CTX-M-132), CLA @ 4 μg/ml+ ATB): 1 µg/mL
MIC ([1]; strain ECO 260304 (CTX-M-15), CLA @ 4 μg/ml+ ATB): 0.5 µg/mL
MIC ([1]; strain ECO 260508 (TEM-1, CTX-M-15, OXA-1), ATB alone, read-out: MIC): > 128 µg/mL
MIC ([1]; strain ECO 260508 (TEM-1, CTX-M-15, OXA-1), CLA @ 4 μg/ml+ ATB): 0.5 µg/mL
MIC ([1]; strain ECO RGN238 (OXA-1), ATB alone): ≤ 0.25 µg/mL
MIC ([1]; strain ECO RGN238 (OXA-1), CLA @ 4 μg/ml+ ATB): ≤ 0.25 µg/mL
MIC ([1]; strain ECO UFR15 (TEM-1, OXA-48), ATB alone): 1 µg/mL
MIC ([1]; strain ECO UFR15 (TEM-1, OXA-48), CLA @ 4 μg/ml+ ATB): 1 µg/mL
MIC ([1]; strain ECO UFR16 (TEM-1, CTX-M-15, OXA-1, OXA-48), ATB alone, read-out: MIC): > 128 µg/mL
MIC ([1]; strain ECO UFR16 (TEM-1, CTX-M-15, OXA-1, OXA-48), CLA @ 4 μg/ml+ ATB): 4 µg/mL
MIC ([1]; strain ECO UFR17 (TEM-1, CTX-M-15, CMY-2, OXA-1, OXA-181), ATB alone, read-out: MIC): > 128 µg/mL
MIC ([1]; strain ECO UFR17 (TEM-1, CTX-M-15, CMY-2, OXA-1, OXA-181), CLA @ 4 μg/ml+ ATB, read-out: MIC): > 128 µg/mL
MIC ([1]; strain ECO UFR18 (CTX-M-15, OXA-204), ATB alone, read-out: MIC): > 128 µg/mL
MIC ([1]; strain ECO UFR18 (CTX-M-15, OXA-204), CLA @ 4 μg/ml+ ATB, read-out: MIC): > 128 µg/mL
MIC ([1]; strain ECO UFR19 (CTX-M-15, CMY-2, OXA-1, OXA-204), ATB alone, read-out: MIC): > 128 µg/mL
MIC ([1]; strain ECO UFR19 (CTX-M-15, CMY-2, OXA-1, OXA-204), CLA @ 4 μg/ml+ ATB, read-out: MIC): > 128 µg/mL
MIC ([1]; strain ECO UFR20 (SHV-1, CTX-M-15, OXA-1, OXA-232), ATB alone): 512 µg/mL
MIC ([1]; strain ECO UFR20 (SHV-1, CTX-M-15, OXA-1, OXA-232), CLA @ 4 μg/ml+ ATB, read-out: MIC): > 128 µg/mL
MIC ([1]; strain ECO UFR61O (TEM-1, KPC-2), CLA @ 4 μg/ml+ ATB, read-out: MIC): 32 µg/mL
MIC ([1]; strain ECO UFR62 (TEM-1, CTX-M-9, KPC-2), ATB alone, read-out: MIC): 128 µg/mL
MIC ([1]; strain ECO UFR62 (TEM-1, CTX-M-9, KPC-2), CLA @ 4 μg/ml+ ATB, read-out: MIC): 32 µg/mL
MIC ([1]; strain ECO UFR74 (SHV-1, DHA-1), ATB alone, read-out: MIC): > 128 µg/mL
MIC ([1]; strain ECO UFR74 (SHV-1, DHA-1), CLA @ 4 μg/ml+ ATB, read-out: MIC): > 128 µg/mL
MIC ([1]; strain ECO UFR86 (ompC-, ompF-), ATB alone, read-out: MIC): 2 µg/mL
MIC ([1]; strain ECO UFR86 (ompC-, ompF-), CLA @ 4 μg/ml+ ATB, read-out: MIC): 2 µg/mL
MIC ([1]; strain ECO UFR174 (TEM-1, KPC-2, OXA-1), ATB alone): 8 µg/mL
MIC ([1]; strain ECO UFR175 (TEM-1, KPC-2, OXA-9), ATB alone): 64 µg/mL
MIC ([1]; strain ECO UFR175 (TEM-1, KPC-2, OXA-9), CLA @ 4 μg/ml+ ATB): 16 µg/mL
MIC ([1]; strain ECO UFR176 (KPC-3, OXA-9*), ATB alone): 64 µg/mL
MIC ([1]; strain ECO UFR184 (CTX-M-15, CMY-4, OXA-1, OXA-204), ATB alone, read-out: MIC): > 128 µg/mL
MIC ([1]; strain ECO UFR184 (CTX-M-15, CMY-4, OXA-1, OXA-204), CLA @ 4 μg/ml+ ATB, read-out: MIC): > 128 µg/mL
MIC ([1]; strain ECO UFR185 (OXA-48), ATB alone, read-out: MIC): > 128 µg/mL
MIC ([1]; strain ECO UFR185 (OXA-48), CLA @ 4 μg/ml+ ATB, read-out: MIC): > 128 µg/mL
MIC ([1]; strain ECO UFR186 (TEM-1, CTX-M-14, OXA-48), CLA @ 4 μg/ml+ ATB): 8 µg/mL
MIC ([1]; strain ECO UFR189 (TEM-1, CTX-M-15, OXA-48), ATB alone, read-out: MIC): > 128 µg/mL
MIC ([1]; strain ECO UFR189 (TEM-1, CTX-M-15, OXA-48), CLA @ 4 μg/ml+ ATB): 4 µg/mL
MIC ([1]; strain ECO UFR190 (CTX-M-24, OXA-48), ATB alone): 64 µg/mL
MIC ([1]; strain ECO UFR190 (CTX-M-24, OXA-48), CLA @ 4 μg/ml+ ATB): 8 µg/mL
MIC ([1]; strain ECO UFR191 (TEM-1, CTX-M-24, OXA-48), ATB alone, read-out: MIC): > 128 µg/mL
MIC ([1]; strain ECO UFR191 (TEM-1, CTX-M-24, OXA-48), CLA @ 4 μg/ml+ ATB): 4 µg/mL
MIC ([1]; strain ECO UFR207 (CTX-M-15), ATB alone, read-out: MIC): > 128 µg/mL
MIC ([1]; strain ECO UFR207 (CTX-M-15), CLA @ 4 μg/ml+ ATB): 1 µg/mL
MIC ([1]; strain ECO UFR208 (SHV-12), ATB alone, read-out: MIC): > 128 µg/mL
MIC ([1]; strain ECO UFR208 (SHV-12), CLA @ 4 μg/ml+ ATB, read-out: MIC): > 128 µg/mL
MIC ([1]; strain ECO UFR209 (TEM-1, CTX-M-15), ATB alone, read-out: MIC): 1020 µg/mL
MIC ([1]; strain ECO UFR209 (TEM-1, CTX-M-15), CLA @ 4 μg/ml+ ATB): 1 µg/mL
MIC ([1]; strain ECO UFR210 (SHV-12), CLA @ 4 μg/ml+ ATB): 0.5 µg/mL
MIC ([1]; strain ECO UFR211 (TEM-24), ATB alone, read-out: MIC): > 128 µg/mL
MIC ([1]; strain ECO UFR212 (CMY-2), ATB alone, read-out: MIC): > 128 µg/mL
MIC ([1]; strain ECO UFR212 (CMY-2), CLA @ 4 μg/ml+ ATB, read-out: MIC): > 128 µg/mL
MIC ([1]; strain ECO UFR218 (TEM-1, SHV-1, CTX-M-15), ATB alone, read-out: MIC): > 128 µg/mL
MIC ([1]; strain ECO UFR218 (TEM-1, SHV-1, CTX-M-15), CLA @ 4 μg/ml+ ATB): 1 µg/mL
MIC ([2]; ATB combined with CLA @ 4 μg/ml, strain PRE UFR236 (TEM-1, OXA-48)): 32 µg/mL
MIC ATB in combination ([2]; PRE UFR99, AF1 @ 4 μg/mL): >128 µg/mL
MIC ATB in combination ([2]; PRE UFR99, AF1 @ 8 μg/mL): >128 µg/mL
MIC ([2]; Providencia rettgeri, strain PRE UFR99 (OXA-1, OXA-181), ATB alone): > 128 µg/mL
MIC ([2]; Providencia rettgeri, strain PRE UFR99 (OXA-1, OXA-181), CLA @ 4 μg/ml+ ATB): > 128 µg/mL
MIC ([2]; Providencia rettgeri, ATB alone, strain PRE UFR236 (TEM-1, OXA-48), read-out: MIC): 32 µg/mL
MIC ATB in combination ([2]; strain PRE UFR236, antibacterial combined with AF1 @ 4 μg/mL): 1 µg/mL
MIC ATB in combination ([2]; strain PRE UFR236, antibacterial combined with AF1 @ 8 μg/mL): 0.5 µg/mL
MIC ATB in combination ([3]; PST UFR94, AF1 @ 4 μg/mL): <=0.25 μg/mL
MIC ATB in combination ([3]; PST UFR94, AF1 @ 8 μg/mL): <=0.25 μg/mL
MIC ATB in combination ([3]; PST UFR95, AF1 @ 4 μg/mL): <=0.25 μg/mL
MIC ATB in combination ([3]; PST UFR95, AF1 @ 8 μg/mL): <=0.25 μg/mL
MIC ATB in combination ([3]; PST UFR235, AF1 @ 4 μg/mL): 0.125 µg/mL
MIC ATB in combination ([3]; PST UFR235, AF1 @ 8 μg/mL): 0.063 µg/mL
MIC ([3]; PST UFR235, alone): 512 µg/mL
MIC ([3]; strain PST UFR94 (CTX-M-14), ATB alone): 0.5 µg/mL
MIC ([3]; strain PST UFR94 (CTX-M-14), CLA @ 4 μg/ml+ ATB): 2 µg/mL
MIC ([3]; strain PST UFR95 (TEM-24), ATB alone): 4 µg/mL
MIC ([3]; strain PST UFR95 (TEM-24), CLA @ 4 μg/ml+ ATB): 8 µg/mL
MIC ([3]; strain PST UFR235 (VEB-1), ATB alone): 512 µg/mL
MIC ([3]; strain PST UFR235 (VEB-1), CLA @ 4 μg/ml+ ATB): 8 µg/mL
MIC ATB in combination ([4]; AF1 @ 4 μg/mL): <=0.25 μg/mL
MIC ATB in combination ([4]; AF1 @ 8 μg/mL): <=0.25 μg/mL
MIC ([4]; ATB alone): ≤ 0.25 µg/mL
MIC ([4]; CLA @ 4 μg/ml+ ATB): ≤ 0.25 µg/mL
